Measurements taken from patent US12157741B2, “Macrocyclic inhibitors of DYRK1A” (DANA-FARBER CANCER INSTITUTE, INC., priority 2018, dated 2024).

Columns and labels:
Type in all cases: biochemical
LRRK2 (G2019S) = target: T1, LRRK2 (G2019S) (Homo sapiens, UniProt Q5S007, G2019S); assay: LRRK2(G2019S) enzyme assay (Promega ADP-Glo Kinase assay); conditions: 25 μM ATP, read-out: Enzyme activity against LRRK2 (G2019S)
T1 construct: purchased SignalChem L10-12GG
Description: All LRRK2 kinase inhibition assays were conducted by using Promega™ ADP-Glo™ Kinase assay systems (Cat No. V4475).
For LRRK G2019S, each compound mixed with 0.2 μg/μL of substrate, 25 μM ATP, 16 ng of LRRK2 G2019S enzyme (SignalChem, L10-12GG). All samples were diluted with kinase reaction buffer (40 mmol/L TrisHCl, 10 mmol/L MgCl2, and 0.1 μg/μL BSA, 0.05 mM DTT). After a 2 h reaction at 25° C., ADP-Glo™ (Promega™, V9102) reagent was added and incubated at rt for 40 min. Finally, kinase detection reagent (Promega™, Cat No. V6930) was added and reacted at 25° C. for 10 min. The luminescence signals were detected by using Synergy™ Neo2 microplate reader (BioTek®). Compound inhibition curve was fitted using GraphPad Prism 8.0 software.

DYRK1A = target: T2, DYRK1A (Homo sapiens, UniProt Q13627); assay: DYRK1A enzyme assay (Promega ADP-Glo Kinase assay); conditions: for IC50: ADP-Glo, 3 μM ATP, read-out: Enzyme activity against DYRK1A; for potency against DYRK1A (statement on Table 5): statement in words
T2 construct: purchased Thermo Fisher Scientific PR7189B
Description: All DYRK1A kinase inhibition assays were conducted by using Promega™ ADP-Glo™ Kinase assay systems (Cat No. V9102).
For DYRK1A enzyme assay, each inhibitor mixed with 0.2 μg/μL of substrate (MVBP, SignalChem, M42-51N), 3 μM ATP (Promega™, Cat No. V9102), 3 ng of DYRK1A enzyme (Thermo Fisher Scientific, PR7189B) in 384-well plate. All samples were diluted with kinase reaction buffer (40 mM Tris HCl, 10 mM MgCL2, and 0.1 μg/μL BSA (bovine serum albumin), 0.05 mM DTT). After 1 h reaction at 25° C., ADP-Glo™ (Proeg™, V9102) reagent was added and incubated at rt for 40 min. Finally, kinase detection reagent (Promega™, Cat No. V6930) was added and reacted at 25° C. for 10 min. The luminescence signals were detected by using Synergy™ Neo2 microplate reader (BioTek®). Compound inhibition curve was fitted using GraphPad Prism 8.0 software.

CLK1 = target: T3, CLK1 (Homo sapiens, UniProt P49759); assay: CLK1 enzyme assay (Promega ADP-Glo Kinase assay); conditions: 10 μM ATP, read-out: Enzyme activity against CLK1
T3 construct: purchased Signalchem C57-11G
T3 sequence (P49759 whole entry): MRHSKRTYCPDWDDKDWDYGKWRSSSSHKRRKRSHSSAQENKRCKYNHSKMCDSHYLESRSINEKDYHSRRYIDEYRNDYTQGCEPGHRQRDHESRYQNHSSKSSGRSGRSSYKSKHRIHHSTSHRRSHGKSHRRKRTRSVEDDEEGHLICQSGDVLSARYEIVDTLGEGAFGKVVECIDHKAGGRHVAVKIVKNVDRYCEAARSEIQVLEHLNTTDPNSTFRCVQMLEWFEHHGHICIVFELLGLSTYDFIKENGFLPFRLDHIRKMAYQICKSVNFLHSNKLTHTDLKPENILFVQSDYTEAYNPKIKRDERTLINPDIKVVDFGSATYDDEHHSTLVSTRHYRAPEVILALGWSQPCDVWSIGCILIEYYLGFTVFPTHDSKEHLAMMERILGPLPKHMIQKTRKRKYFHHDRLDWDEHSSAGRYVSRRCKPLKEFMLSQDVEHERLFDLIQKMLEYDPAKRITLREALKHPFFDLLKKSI
Description: All CLK1 kinase inhibition assays were conducted by using Promega™ ADP-Glo™ Kinase assay systems (Cat No. V9102).
For DYRKIA enzyme assay, each inhibitor mixed with 0.1 μg/μL of substrate (MBP, SignalChem, M42-51N), 10 μM ATP (Promega™, Cat No. V9102), 1.6 ng of CLK1 enzyme (Signalchem, C57-11G) in 384-well plate. All samples were diluted with kinase reaction buffer (40 mM Tris HCl, 10 mM MgCL2, and 0.1 μg/μL BSA, 0.05 mM DTT). After 1 h reaction at 25° C., ADP-Glo™ (Promega™, Cat No. V9102) reagent was added and incubated at rt for 40 min. Finally, kinase detection reagent (Promega™, Cat No. V6930) was added and reacted at 25° C. for 10 min. The luminescence signals were detected by using Synergy™ Neo2 microplate reader (BioTek®). Compound inhibition curve was fitted using GraphPad Prism 8.0 software.

DYRK1B = target: T4, DYRK1B (Homo sapiens, UniProt Q9Y463); assay: Invitrogen Zlyte assay, DYRK1B
T4 construct: purchased Invitrogen (assay run by the vendor)
T4 sequence (Q9Y463 whole entry): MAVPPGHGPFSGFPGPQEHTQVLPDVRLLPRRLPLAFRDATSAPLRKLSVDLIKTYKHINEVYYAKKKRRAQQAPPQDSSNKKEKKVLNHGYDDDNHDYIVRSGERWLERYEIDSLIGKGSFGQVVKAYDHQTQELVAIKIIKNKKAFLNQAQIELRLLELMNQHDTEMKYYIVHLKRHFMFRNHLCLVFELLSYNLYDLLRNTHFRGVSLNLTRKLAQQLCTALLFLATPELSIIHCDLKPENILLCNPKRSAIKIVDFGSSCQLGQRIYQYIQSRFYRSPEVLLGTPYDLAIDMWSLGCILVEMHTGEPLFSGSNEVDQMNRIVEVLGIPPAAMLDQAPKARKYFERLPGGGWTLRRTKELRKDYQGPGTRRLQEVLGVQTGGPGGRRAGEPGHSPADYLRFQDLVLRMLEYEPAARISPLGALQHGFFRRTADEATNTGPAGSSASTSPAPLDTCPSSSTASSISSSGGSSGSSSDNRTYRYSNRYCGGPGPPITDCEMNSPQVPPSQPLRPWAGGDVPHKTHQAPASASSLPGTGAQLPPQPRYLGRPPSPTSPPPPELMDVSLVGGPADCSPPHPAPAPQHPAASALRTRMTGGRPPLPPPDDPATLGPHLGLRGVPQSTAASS

T1 sequence (Q5S007 whole entry G2019S): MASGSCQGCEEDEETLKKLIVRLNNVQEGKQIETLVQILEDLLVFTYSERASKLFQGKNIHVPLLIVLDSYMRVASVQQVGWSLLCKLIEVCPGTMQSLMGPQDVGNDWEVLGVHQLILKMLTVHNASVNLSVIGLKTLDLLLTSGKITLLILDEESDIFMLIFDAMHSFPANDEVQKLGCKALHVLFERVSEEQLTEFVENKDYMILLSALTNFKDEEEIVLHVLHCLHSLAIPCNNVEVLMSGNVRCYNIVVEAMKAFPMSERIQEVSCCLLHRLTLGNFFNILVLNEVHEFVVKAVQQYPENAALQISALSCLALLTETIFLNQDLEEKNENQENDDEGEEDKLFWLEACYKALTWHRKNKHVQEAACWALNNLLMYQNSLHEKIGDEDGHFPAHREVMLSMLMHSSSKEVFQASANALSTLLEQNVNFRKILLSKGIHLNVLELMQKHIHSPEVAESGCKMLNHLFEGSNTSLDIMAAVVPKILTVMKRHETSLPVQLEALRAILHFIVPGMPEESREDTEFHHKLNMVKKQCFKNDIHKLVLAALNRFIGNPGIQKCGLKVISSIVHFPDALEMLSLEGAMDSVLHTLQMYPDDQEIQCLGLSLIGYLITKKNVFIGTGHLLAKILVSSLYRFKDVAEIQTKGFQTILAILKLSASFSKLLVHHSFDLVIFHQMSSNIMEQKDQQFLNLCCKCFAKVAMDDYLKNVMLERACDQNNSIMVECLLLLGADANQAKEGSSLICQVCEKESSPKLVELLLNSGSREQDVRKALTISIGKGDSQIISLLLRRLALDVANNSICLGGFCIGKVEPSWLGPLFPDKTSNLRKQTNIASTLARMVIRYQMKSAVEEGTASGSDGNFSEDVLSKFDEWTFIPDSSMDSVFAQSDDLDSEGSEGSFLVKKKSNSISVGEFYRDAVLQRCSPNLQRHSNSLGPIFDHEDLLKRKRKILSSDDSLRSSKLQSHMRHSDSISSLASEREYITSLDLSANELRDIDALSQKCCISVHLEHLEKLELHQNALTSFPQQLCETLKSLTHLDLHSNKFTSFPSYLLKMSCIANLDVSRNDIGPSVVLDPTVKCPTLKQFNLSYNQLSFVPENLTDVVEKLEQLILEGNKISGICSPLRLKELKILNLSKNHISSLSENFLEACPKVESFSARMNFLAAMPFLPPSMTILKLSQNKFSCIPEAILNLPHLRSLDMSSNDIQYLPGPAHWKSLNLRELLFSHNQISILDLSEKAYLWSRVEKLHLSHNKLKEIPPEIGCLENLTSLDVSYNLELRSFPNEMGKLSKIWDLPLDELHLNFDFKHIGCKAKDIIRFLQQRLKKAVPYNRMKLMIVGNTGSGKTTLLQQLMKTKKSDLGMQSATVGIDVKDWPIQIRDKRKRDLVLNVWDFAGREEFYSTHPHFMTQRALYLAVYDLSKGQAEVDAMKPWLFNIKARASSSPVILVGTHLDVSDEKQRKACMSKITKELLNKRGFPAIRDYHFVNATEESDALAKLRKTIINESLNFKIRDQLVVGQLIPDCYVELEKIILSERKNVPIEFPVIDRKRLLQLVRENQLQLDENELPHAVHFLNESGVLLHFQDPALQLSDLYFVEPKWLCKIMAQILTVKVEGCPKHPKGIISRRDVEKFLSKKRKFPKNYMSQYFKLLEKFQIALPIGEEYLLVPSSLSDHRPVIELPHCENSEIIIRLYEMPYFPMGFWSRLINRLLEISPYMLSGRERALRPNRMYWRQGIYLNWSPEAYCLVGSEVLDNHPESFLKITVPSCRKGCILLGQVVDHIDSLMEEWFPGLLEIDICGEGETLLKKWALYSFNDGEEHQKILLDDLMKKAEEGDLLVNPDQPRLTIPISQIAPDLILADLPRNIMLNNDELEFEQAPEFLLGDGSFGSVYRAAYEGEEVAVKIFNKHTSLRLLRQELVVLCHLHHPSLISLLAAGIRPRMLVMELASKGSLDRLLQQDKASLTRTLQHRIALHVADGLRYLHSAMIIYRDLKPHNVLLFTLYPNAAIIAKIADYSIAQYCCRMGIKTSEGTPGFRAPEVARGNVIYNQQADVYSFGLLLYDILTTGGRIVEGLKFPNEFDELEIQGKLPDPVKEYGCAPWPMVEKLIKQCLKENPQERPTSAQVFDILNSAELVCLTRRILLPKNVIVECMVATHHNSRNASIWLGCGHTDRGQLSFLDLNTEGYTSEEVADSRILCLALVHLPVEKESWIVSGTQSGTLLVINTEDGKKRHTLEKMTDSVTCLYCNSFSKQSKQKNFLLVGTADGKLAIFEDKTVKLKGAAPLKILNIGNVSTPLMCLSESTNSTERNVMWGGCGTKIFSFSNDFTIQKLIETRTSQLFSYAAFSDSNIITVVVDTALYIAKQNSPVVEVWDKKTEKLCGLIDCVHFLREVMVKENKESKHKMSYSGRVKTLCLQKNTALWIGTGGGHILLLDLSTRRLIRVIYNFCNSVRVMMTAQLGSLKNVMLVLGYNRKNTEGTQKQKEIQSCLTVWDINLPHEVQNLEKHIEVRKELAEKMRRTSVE

| Structure (SMILES) | IC50 (LRRK2 (G2019S)) [nM] | IC50 (DYRK1A) [nM] | potency against DYRK1A (statement on Table 5) (DYRK1A) | IC50 (CLK1) [nM] | IC50 (DYRK1B) [nM] |
| --- | --- | --- | --- | --- | --- |
| CN1Cc2nn(C)cc2-c2cnc3[nH]cc(c3c2)-c2cn(nc2C(F)(F)F)CCCC1=O [Compound 43, (Z)-31,5-dimethyl-13-(trifluoromethyl)-11H,21H,31H-5-aza-2(3,5)-pyrrolo[2,3-b]pyridina-1(4,1),3(4,3)-dipyrazolacyclononaphan-6-one] | > 100 | < 50 | most potent | < 50 | – |
| COc1c2c(nn1C)CN(C(C)C)C(=O)CCCn1cc(c(C(F)(F)F)n1)-c1c(C)[nH]c3ncc-2cc13 [Compound 51, (Z)-5-isopropyl-35-methoxy-22,31-dimethyl-13-(trifluoromethyl)-11H,21H,31H-5-aza-2(3,5)-pyrrolo[2,3-b]pyridina-1(4,1),3(4,3)-dipyrazolacyclononaphan-6-one] | – | – | – | – | 533 |
| Cc1[nH]c2ncc3cc2c1-c1cn(nc1C(F)(F)F)CCCC(=O)N(C)Cc1nn(C)c(C#N)c1-3 [Compound 52, (Z)-22,31,5-trimethyl-6-oxo-13-(trifluoromethyl)-11H,21H,31H-5-aza-2(3,5)-pyrrolo[2,3-b]pyridina-1(4,1),3(4,3)-dipyrazolacyclononaphane-35-carbonitrile] | – | – | – | – | 55 |
| COCCn1cc2c(n1)CN(C)C(=O)CCCn1cc(c(C(F)(F)F)n1)-c1c[nH]c3ncc-2cc13 [Compound 59, (Z)-31-(2-methoxyethyl)-5-methyl-13-(trifluoromethyl)-11H,21H,31H-5-aza-2(3,5)-pyrrolo[2,3-b]pyridina-1(4,1),3(4,3)-dipyrazolacyclononaphan-6-one] | > 100 | < 50 | most potent | < 50 | – |
| CN1Cc2nn(C3CCNCC3)cc2-c2cnc3[nH]cc(c3c2)-c2cn(nc2C(F)(F)F)CCCC1=O [Compound 60, (Z)-5-methyl-31-(piperidin-4-yl)-13-(trifluoromethyl)-11H,21H,31H-5-aza-2(3,5)-pyrrolo[2,3-b]pyridina-1(4,1),3(4,3)-dipyrazolacyclononaphan-6-one] | > 100 | < 50 | most potent | < 50 | – |
| COCCn1nc2c(c1C#N)-c1cnc3[nH]cc(c3c1)-c1cn(nc1C(F)(F)F)CCCC(=O)N(C)C2 [Compound 61, (Z)-31-(2-methoxyethyl)-5-methyl-6-oxo-13-(trifluoromethyl)-11H,21H,31H-5-aza-2(3,5)-pyrrolo[2,3-b]pyridina-1(4,1),3(4,3)-dipyrazolacyclononaphane-35-carbonitrile] | > 100 | < 50 | most potent | > 100 | – |
| CN1Cc2nn(C)cc2-c2cnc3[nH]cc(c3c2)-c2cn(nc2C(F)(F)F)CCC1=O [Compound 63, (Z)-31,5-dimethyl-13-(trifluoromethyl)-11H,21H,31H-5-aza-2(3,5)-pyrrolo[2,3-b]pyridina-1(4,1),3(4,3)-dipyrazolacyclooctaphan-6-one] | 50 to 100 | 50 to 100 | – | < 50 | – |
| CN1Cc2nn(C3CCNCC3)cc2-c2cnc3[nH]cc(c3c2)-c2cn(nc2C(F)(F)F)CCC1=O [Compound 65, (Z)-5-methyl-31-(piperidin-4-yl)-13-(trifluoromethyl)-11H,21H,31H-5-aza-2(3,5)-pyrrolo[2,3-b]pyridina-1(4,1),3(4,3)-dipyrazolacyclooctaphan-6-one] | > 100 | > 100 | – | > 100 | – |
| COCCn1nc2c(c1C#N)-c1cnc3[nH]cc(c3c1)-c1cn(nc1C(F)(F)F)CCC(=O)N(C)C2 [Compound 67, (Z)-31-(2-methoxyethyl)-5-methyl-6-oxo-13-(trifluoromethyl)-11H,21H,31H-5-aza-2(3,5)-pyrrolo[2,3-b]pyridina-1(4,1),3(4,3)-dipyrazolacyclooctaphane-35-carbonitrile] | > 100 | < 50 | most potent | > 100 | – |
| CN1CCCCn2cc(c(C(F)(F)F)n2)-c2c[nH]c3ncc(cc23)-c2cn(C)nc2C1=O [Compound 75, (Z)-31,5-dimethyl-13-(trifluoromethyl)-11H,21H,31H-5-aza-2(3,5)-pyrrolo[2,3-b]pyridina-1(4,1),3(4,3)-dipyrazolacyclononaphan-4-one] | > 100 | > 100 | – | > 100 | – |
| CN1CCCCn2cc(c(C(F)(F)F)n2)-c2c[nH]c3ncc(cc23)-c2c(nn(C)c2C#N)C1=O [Compound 78, (Z)-31,5-dimethyl-4-oxo-13-(trifluoromethyl)-11H,21H,31H-5-aza-2(3,5)-pyrrolo[2,3-b]pyridina-1(4,1),3(4,3)-dipyrazolacyclononaphane-35-carbonitrile] | > 100 | > 100 | – | > 100 | – |
